Test results: patent US9120812B2, “Pyrimidooxazocine derivatives as mTOR-inhibitors” (SANOFI, priority 2012, dated 2015)

Columns and labels:
[1] = target: mTOR (human recombinant aa mTOR 1360-2549) (Homo sapiens (Human), UniProt P42345); assay: mTOR enzymatic test by TR-FRET (phosphorylation of GFP-4EBP1); type: biochemical
Procedure: Model 1: mTOR Enzymatic Test by TR-FRET (Time-resolved Fluorescence Resonance Energy Transfer).
The test detects the phosphorylation of the substrate GFP-4EBP1 using a terbium-labelled antibody that is specific for the phospho-Thr46 epitope. Binding of the Tb-antibody to the phosphorylated GFP peptide allows the transfer of energy from Tb, excited at 340 nm, to GFP with an increase in the fluorescence emission of the GFP at 520 nm. […] The mixture is incubated for 30 minutes at room temperature. 10 μl of solution are taken up and the reaction is quenched by adding 10 μl of Tb-antibody solution (Invitrogen PV4757)/EDTA (2 nM Tb-Ac and 10 mM EDTA final). After 60 minutes at room temperature, the fluorescence at 490 nm, from the Tb emission, and at 520 nm, from the GFP emission, is measured in a BMG PHERAstar reader equipped with a Lanthascreen™ filter (excitation at 340 nm, emission at 490 and 520 nm). The results are given in the form of the 520/490 ratio.

PI3Kα (p110α/p85α) = PI3Kα (p110α/p85α) (Homo sapiens (Human), UniProt P42336); assay: PI3Kα enzymatic test by measuring the consumption of ATP; type: biochemical
Procedure: Model 2: PI3Kα Enzymatic Test by Measuring the Consumption of ATP.
The test uses a lucifeurerin/luciferase system to measure the concentration of ATP and its consumption during the enzymatic reaction. The test is performed in 96-well format (Corning/Costar 96 black flat-bottomed half-wells plate, ref. 3694) in a total volume of 30 μl.
To 1 μl of inhibitor in 100% DMSO are added (final concentrations) 50 μM of the substrate PIP2 ((L-α-phosphatidyl-D-myoinositol 4,5-bisphosphate, Echelon 117P-4516-0500), 2 μM of ATP and 1.7 μg/ml of PI3Kα, (p110α/p85α, Invitrogen PV4788) in a buffer of Tris/HCl 50 mM pH 7.5, EGTA 1 mM, MgCl2 10 mM, Chaps 0.03%, 1 mM DTT). After 90 minutes, the reaction is quenched by adding 20 μl/well of KinaseGlo reagent (Promega V6713). After 10 minutes in the dark, the luminescence is read on the PHERAStar microplate reader (reading at 0.8 sec/well).
The IC50 values are determined by the preparation of successive threefold dilutions on at least a scale of 10 000.

U87MG tumour cells = assay: Test of in vitro proliferation of U87MG tumour cells; type: cell-based; settings: Homo sapiens, U-87 MG, 72 h, U87MG cells, 72 hours; read-out: U87 Cell Proliferation IC50
Procedure: Model 4: Test of in vitro Proliferation of U87MG Tumour Cells.
The cell growth is determined with the reagent CellTiter 96 AQueous One Solution Cell Proliferation Assay from Promega (Cat. No. G3581).

Sequence of PI3Kα (p110α/p85α) (P42336 whole entry): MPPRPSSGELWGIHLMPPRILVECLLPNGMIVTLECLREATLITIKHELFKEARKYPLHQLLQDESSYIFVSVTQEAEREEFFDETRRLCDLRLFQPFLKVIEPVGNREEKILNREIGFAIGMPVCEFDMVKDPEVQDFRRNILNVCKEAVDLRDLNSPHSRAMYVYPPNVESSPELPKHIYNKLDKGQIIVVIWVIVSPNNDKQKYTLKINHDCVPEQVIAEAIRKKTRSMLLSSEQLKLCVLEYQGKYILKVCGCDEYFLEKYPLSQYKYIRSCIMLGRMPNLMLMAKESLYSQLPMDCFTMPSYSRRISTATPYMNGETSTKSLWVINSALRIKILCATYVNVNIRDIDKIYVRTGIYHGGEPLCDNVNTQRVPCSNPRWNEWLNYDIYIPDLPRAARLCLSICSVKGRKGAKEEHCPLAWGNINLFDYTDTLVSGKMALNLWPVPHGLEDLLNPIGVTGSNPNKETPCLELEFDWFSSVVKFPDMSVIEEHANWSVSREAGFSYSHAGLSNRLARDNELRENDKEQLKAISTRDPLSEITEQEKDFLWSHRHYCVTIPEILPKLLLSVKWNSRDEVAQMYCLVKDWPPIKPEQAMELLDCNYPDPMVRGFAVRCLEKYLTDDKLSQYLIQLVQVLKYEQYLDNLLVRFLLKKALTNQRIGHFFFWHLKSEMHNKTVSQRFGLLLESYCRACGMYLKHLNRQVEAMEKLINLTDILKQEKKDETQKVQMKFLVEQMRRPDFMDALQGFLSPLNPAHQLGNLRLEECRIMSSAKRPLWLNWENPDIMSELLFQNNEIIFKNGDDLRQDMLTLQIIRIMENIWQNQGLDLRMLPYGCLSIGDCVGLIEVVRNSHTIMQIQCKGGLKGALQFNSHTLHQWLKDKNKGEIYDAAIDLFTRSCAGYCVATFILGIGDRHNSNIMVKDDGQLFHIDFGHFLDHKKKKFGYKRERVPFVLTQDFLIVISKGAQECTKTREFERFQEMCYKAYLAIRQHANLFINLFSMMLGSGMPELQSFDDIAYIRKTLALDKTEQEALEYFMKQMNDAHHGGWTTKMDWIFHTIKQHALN
Sequence of PI3Kα (p110α/p85α) (P27986 whole entry partner): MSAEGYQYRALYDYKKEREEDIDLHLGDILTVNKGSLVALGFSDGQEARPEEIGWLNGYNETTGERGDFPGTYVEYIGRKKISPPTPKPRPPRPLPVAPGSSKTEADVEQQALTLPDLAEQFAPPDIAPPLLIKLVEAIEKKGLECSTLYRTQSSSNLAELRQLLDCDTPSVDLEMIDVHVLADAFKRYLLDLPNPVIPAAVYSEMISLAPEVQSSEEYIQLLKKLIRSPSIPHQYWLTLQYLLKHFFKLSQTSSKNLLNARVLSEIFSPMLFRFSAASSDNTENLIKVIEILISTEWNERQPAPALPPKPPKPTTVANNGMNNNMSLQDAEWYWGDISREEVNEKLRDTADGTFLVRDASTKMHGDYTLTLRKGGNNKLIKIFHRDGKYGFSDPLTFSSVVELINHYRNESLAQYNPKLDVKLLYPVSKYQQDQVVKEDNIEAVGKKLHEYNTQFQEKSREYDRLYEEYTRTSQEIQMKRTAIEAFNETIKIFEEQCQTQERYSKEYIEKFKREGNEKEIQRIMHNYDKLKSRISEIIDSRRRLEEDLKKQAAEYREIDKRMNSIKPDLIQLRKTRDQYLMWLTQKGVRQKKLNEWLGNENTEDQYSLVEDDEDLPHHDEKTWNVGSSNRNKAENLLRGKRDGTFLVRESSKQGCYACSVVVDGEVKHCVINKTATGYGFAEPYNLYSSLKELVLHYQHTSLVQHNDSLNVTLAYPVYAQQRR
Sequence of mTOR (human recombinant aa mTOR 1360-2549) (P42345 1360-2549): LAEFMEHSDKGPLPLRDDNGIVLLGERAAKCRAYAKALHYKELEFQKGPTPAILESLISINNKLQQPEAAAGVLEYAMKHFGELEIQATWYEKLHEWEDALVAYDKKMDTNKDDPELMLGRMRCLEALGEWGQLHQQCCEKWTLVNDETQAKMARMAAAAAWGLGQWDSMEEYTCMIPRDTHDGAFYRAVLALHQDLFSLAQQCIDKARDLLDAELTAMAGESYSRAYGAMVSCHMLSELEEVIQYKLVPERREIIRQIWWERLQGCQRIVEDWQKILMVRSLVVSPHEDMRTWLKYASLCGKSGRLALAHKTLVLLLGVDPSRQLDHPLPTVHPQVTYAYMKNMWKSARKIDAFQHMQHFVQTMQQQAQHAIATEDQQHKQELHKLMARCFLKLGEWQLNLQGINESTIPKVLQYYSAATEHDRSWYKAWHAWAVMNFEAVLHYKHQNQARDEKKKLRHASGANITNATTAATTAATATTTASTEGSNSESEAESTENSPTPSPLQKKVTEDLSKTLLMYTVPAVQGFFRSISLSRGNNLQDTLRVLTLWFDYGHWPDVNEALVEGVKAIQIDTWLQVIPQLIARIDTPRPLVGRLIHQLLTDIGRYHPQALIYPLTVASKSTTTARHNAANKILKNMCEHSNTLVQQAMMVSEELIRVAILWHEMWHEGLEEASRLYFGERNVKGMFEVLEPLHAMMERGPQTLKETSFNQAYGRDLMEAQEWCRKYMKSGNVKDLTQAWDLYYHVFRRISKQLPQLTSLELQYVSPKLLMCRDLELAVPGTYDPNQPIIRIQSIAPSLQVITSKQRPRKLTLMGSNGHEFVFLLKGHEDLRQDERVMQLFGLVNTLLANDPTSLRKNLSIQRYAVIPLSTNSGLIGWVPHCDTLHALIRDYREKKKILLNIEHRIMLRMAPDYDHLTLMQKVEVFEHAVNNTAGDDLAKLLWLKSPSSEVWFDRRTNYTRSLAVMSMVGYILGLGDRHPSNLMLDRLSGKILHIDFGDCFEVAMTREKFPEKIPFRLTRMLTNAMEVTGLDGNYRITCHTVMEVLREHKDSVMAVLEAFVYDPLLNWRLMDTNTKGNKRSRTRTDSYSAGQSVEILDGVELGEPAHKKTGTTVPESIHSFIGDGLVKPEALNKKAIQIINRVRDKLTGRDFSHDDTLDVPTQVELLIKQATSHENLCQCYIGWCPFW

## CCNC(=O)Nc1ccc(-c2nc(N3CC4CCC(C3)O4)nc3c2C(=O)N(C[C@@H]2CCCN2C(=O)OCC)CC(C)(C)O3)cc1F [Example 5, (S)-2-[4-[4-(3-ethylureido)-3-fluorophenyl]-8,8-dimethyl-2-(8-oxa-3-azabicyclo[3.2.1]oct-3-yl)-5-oxo-7,8-dihydro-5H-9-oxa-1,3,6-triazabenzocyclohepten-6-ylmethyl]pyrrolidine-1-carboxylic acid ethyl ester]
[1]
  IC50: 0.905 µM
PI3Kα (p110α/p85α)
  PI3Ka IC50: >10 µM
U87MG tumour cells
  IC50: > 10 µM

## CCNC(=O)Nc1ccc(-c2nc(N3CC4CCC(C3)O4)nc3c2C(=O)N(C[C@@H]2CCCN2C(C)=O)CC(C)(C)O3)cc1F [Example 6, 1-{4-[6-((S)-1-acetylpyrrolidin-2-ylmethyl)-8,8-dimethyl-2-(8-oxa-3-azabicyclo[3.2.1]oct-3-yl)-5-oxo-5,6,7,8-tetrahydro-9-oxa-1,3,6-triazabenzocyclohepten-4-yl]-2-fluorophenyl}-3-ethylurea]
[1]
  IC50: 1.07 µM
PI3Kα (p110α/p85α)
  PI3Ka IC50: >10 µM
U87MG tumour cells
  IC50: 7.15 µM

## CCNC(=O)Nc1ccc(-c2nc(N3CC4CCC(C3)O4)nc3c2C(=O)N(CCCO)CC(C)(C)O3)cc1 [Example 9, 1-ethyl-3-{4-[6-(3-hydroxypropyl)-8,8-dimethyl-2-(8-oxa-3-azabicyclo[3.2.1]oct-3-yl)-5-oxo-5,6,7,8-tetrahydro-9-oxa-1,3,6-triazabenzocyclohepten-4-yl]phenyl}urea]
[1]
  IC50: 0.065 µM
PI3Kα (p110α/p85α)
  PI3Ka IC50: >10 µM
U87MG tumour cells
  IC50: 2.5 µM

## CCNC(=O)Nc1ccc(-c2nc(N3CC4CCC(C3)O4)nc3c2C(=O)N(CC)CC(C)(C)O3)cn1 [Example 17, 1-ethyl-3-{5-[6-ethyl-8,8-dimethyl-2-(8-oxa-3-azabicyclo[3.2.1]oct-3-yl)-5-oxo-5,6,7,8-tetrahydro-9-oxa-1,3,6-triazabenzocyclohepten-4-yl]pyridin-2-yl}urea]
[1]
  IC50: 2.49 µM
PI3Kα (p110α/p85α)
  PI3Ka IC50: >10 µM
U87MG tumour cells
  IC50: > 10 µM

## CC1(C)CNC(=O)c2c(nc(N3CCOCC3)nc2-c2ccc(N)nc2)O1 [Example 95, 4-(6-Aminopyridin-3-yl)-8,8-dimethyl-2-morpholin-4-yl-7,8-dihydro-6H-9-oxa-1,3,6-triazabenzocyclohepten-5-one]
[1]
  IC50: 0.624 µM
PI3Kα (p110α/p85α)
  PI3Ka IC50: >10 µM

## CCNC(=O)Nc1ccc(-c2nc(N3CCOCC3)nc3c2C(=O)N(CC)CCO3)cc1 [Example 97, 1-Ethyl-3-[4-(6-ethyl-2-morpholin-4-yl-5-oxo-5,6,7,8-tetrahydro-9-oxa-1,3,6-triazabenzocyclohepten-4-yl)phenyl]urea]
[1]
  IC50: 0.8 µM
PI3Kα (p110α/p85α)
  PI3Ka IC50: 2.159 µM
U87MG tumour cells
  IC50: > 10 µM

## CCN1CC(C)(C)Oc2nc(N3CCOCC3)nc(-c3ccc(OC)c(CO)c3)c2C1=O [Example 100, 6-Ethyl-4-(3-hydroxymethyl-4-methoxyphenyl)-8,8-dimethyl-2-morpholin-4-yl-7,8-dihydro-6H-9-oxa-1,3,6-triazabenzocyclohepten-5-one]
[1]
  IC50: 7.29 µM
PI3Kα (p110α/p85α)
  PI3Ka IC50: 7.44 µM
U87MG tumour cells
  IC50: > 10 µM

## CCN1CC(C)(C)Oc2nc(N3CC4CCC(C3)O4)nc(-c3ccc(OC)c(CO)c3)c2C1=O [Example 101, 6-Ethyl-4-(3-hydroxymethyl-4-methoxyphenyl)-8,8-dimethyl-2-(8-oxa-3-azabicyclo[3.2.1]oct-3-yl)-7,8-dihydro-6H-9-oxa-1,3,6-triazabenzocyclohepten-5-one]
[1]
  IC50: 4.04 µM
U87MG tumour cells
  IC50: > 10 µM

## CCN1CC(C)(C)Oc2nc(N3CCOCC3)nc(-c3ccc(N)cc3)c2C1=O [Example 102, 4-(4-Aminophenyl)-6-ethyl-8,8-dimethyl-2-morpholin-4-yl-7,8-dihydro-6H-9-oxa-1,3,6-triazabenzocyclohepten-5-one]
[1]
  IC50: 0.927 µM
PI3Kα (p110α/p85α)
  PI3Ka IC50: 3.61 µM
U87MG tumour cells
  IC50: 9.83 µM

## CCN1CC(C)(C)Oc2nc(N3CCOCC3)nc(-c3ccc(NC(=O)NOC)cc3)c2C1=O [Example 104, 1-Methoxy-3-[4-(6-ethyl-8,8-dimethyl-2-morpholin-4-yl-5-oxo-5,6,7,8-tetrahydro-9-oxa-1,3,6-triazabenzocyclohepten-4-yl)phenyl]urea]
[1]
  IC50: 1.49 µM
PI3Kα (p110α/p85α)
  PI3Ka IC50: 3.75 µM
U87MG tumour cells
  IC50: > 10 µM

## CCN1CC(C)(C)Oc2nc(N3CC4CCC(C3)O4)nc(-c3ccc(N)nc3)c2C1=O [Example 107, 4-(6-Aminopyridin-3-yl)-6-ethyl-8,8-dimethyl-2-(8-oxa-3-azabicyclo[3.2.1]oct-3-yl)-7,8-dihydro-6H-9-oxa-1,3,6-triazabenzocyclohepten-5-one]
[1]
  IC50: 2.65 µM
PI3Kα (p110α/p85α)
  PI3Ka IC50: 9.38 µM
U87MG tumour cells
  IC50: > 10 µM

## CCC(=O)Nc1ccc(-c2nc(N3CC4CCC(C3)O4)nc3c2C(=O)N(CC)CC(C)(C)O3)cc1 [Example 108, N-{4-[6-Ethyl-8,8-dimethyl-2-(8-oxa-3-azabicyclo[3.2.1]oct-3-yl)-5-oxo-5,6,7,8-tetrahydro-9-oxa-1,3,6-triazabenzocyclohepten-4-yl]phenyl}propionamide]
[1]
  IC50: 0.472 µM
PI3Kα (p110α/p85α)
  PI3Ka IC50: >10 µM
U87MG tumour cells
  IC50: 4.45 µM

## CCNC(=O)Nc1ccc(-c2nc(N3C[C@@H](C)O[C@@H](C)C3)nc3c2C(=O)N(CC)CC(C)(C)CO3)cc1 [Example 109, 1-{4-[2-((2S,6R)-2,6-Dimethylmorpholin-4-yl)-6-ethyl-8,8-dimethyl-5-oxo-6,7,8,9-tetrahydro-5H-10-oxa-1,3,6-triazabenzocycloocten-4-yl]phenyl}-3-ethylurea]
[1]
  IC50: 7.77 µM
PI3Kα (p110α/p85α)
  PI3Ka IC50: 2.046 µM

## CCN1CC(C)(C)Oc2nc(N3CC4CCC(C3)O4)nc(-c3ccc(NS(=O)(=O)CC)cc3)c2C1=O [Example 111, Ethanesulfonic acid {4-[6-ethyl-8,8-dimethyl-2-(8-oxa-3-azabicyclo[3.2.1]oct-3-yl)-5-oxo-5,6,7,8-tetrahydro-9-oxa-1,3,6-triazabenzocyclohepten-4-yl]phenyl}amide]
[1]
  IC50: 6.35 µM
PI3Kα (p110α/p85α)
  PI3Ka IC50: >10 µM

## CCNC(=O)Nc1ccc(-c2nc(N3CC4CCC(C3)O4)nc3c2CN(CC)CC(C)(C)O3)cc1 [Example 113, 1-Ethyl-3-{4-[6-ethyl-8,8-dimethyl-2-(8-oxa-3-azabicyclo[3.2.1]oct-3-yl)-5,6,7,8-tetrahydro-9-oxa-1,3,6-triazabenzocyclohepten-4-yl]phenyl}urea]
[1]
  IC50: 3.96 µM
PI3Kα (p110α/p85α)
  PI3Ka IC50: >10 µM
U87MG tumour cells
  IC50: > 10 µM

## CCNC(=O)Nc1ccc(-c2nc(N3C[C@@H](C)O[C@@H](C)C3)nc3c2C(=O)N(CC)CC(C)(C)O3)cc1 [Example 114, 1-{4-[2-((2S,6R)-2,6-Dimethylmorpholin-4-yl)-6-ethyl-8,8-dimethyl-5-oxo-5,6,7,8-tetrahydro-9-oxa-1,3,6-triazabenzocyclohepten-4-yl]phenyl}-3-ethylurea]
[1]
  IC50: 1.22 µM
PI3Kα (p110α/p85α)
  PI3Ka IC50: >10 µM
U87MG tumour cells
  IC50: > 10 µM

## CCN1CC(C)(C)Oc2nc(N3CC4CCC(C3)O4)nc(-c3ccc(NC(=O)Nc4ccnn4C)cc3)c2C1=O [Example 115, 1-{4-[6-Ethyl-8,8-dimethyl-2-(8-oxa-3-azabicyclo[3.2.1]oct-3-yl)-5-oxo-5,6,7,8-tetrahydro-9-oxa-1,3,6-triazabenzocyclohepten-4-yl]phenyl}-3-(2-methyl-2H-pyrazol-3-yl)urea]
[1]
  IC50: 0.147 µM
PI3Kα (p110α/p85α)
  PI3Ka IC50: >10 µM
U87MG tumour cells
  IC50: 5 µM

## CCN1CC(C)(C)Oc2nc(N3CC4CCC(C3)O4)nc(-c3ccc(NC(=O)NC(C)(C)CO)c(F)c3)c2C1=O [Example 224, 1-{4-[6-Ethyl-8,8-dimethyl-2-(8-oxa-3-azabicyclo[3.2.1]oct-3-yl)-5-oxo-5,6,7,8-tetrahydro-9-oxa-1,3,6-triazabenzocyclohepten-4-yl]-2-fluorophenyl}-3-(2-hydroxy-1,1-dimethylethyl)urea]
[1]
  IC50: 1.12 µM
PI3Kα (p110α/p85α)
  PI3Ka IC50: >10 µM

## COCCN1CC(C)(C)Oc2nc(N3CCOC[C@@H]3C)nc(-c3ccc(NC(=O)NCC(C)(C)O)c(F)c3)c2C1=O [Example 226, 1-{2-Fluoro-4-[6-(2-methoxyethyl)-8,8-dimethyl-2-((S)-3-methylmorpholin-4-yl)-5-oxo-5,6,7,8-tetrahydro-9-oxa-1,3,6-triazabenzocyclohepten-4-yl]phenyl}-3-(2-hydroxy-2-methylpropyl)urea]
[1]
  IC50: 1.28 µM
PI3Kα (p110α/p85α)
  PI3Ka IC50: >10 µM
